Assay results published in paper PMC7385433 (International Journal of Antimicrobial Agents, 2020).

Assays:
[1] = tested on: Burkholderia pseudomallei K96243; type: in vivo, BALB/c mice; details: for survival at 30 days post-infection: n = 5
[2] = not told; cited from earlier work
[3] = tested on: gyrase and topoisomerase IV; details: cited from earlier work
[4] = tested on: Burkholderia pseudomallei K96243; design: species or system Galleria mellonella; details: for larvae whose haemolymph was sterile of any bacteria / survival of Galleria larvae: in vivo
[5] = in vivo; details: female, BALB/c, mouse, ip, 15 mg/kg
[6] = tested on: B. pseudomallei; assay: microbe, parasite or virus in culture; type: cell-based; details: Burkholderia pseudomallei, read-out: minimum inhibitory concentration (MIC)
[7] = in vivo
[8] = tested on: B. pseudomallei; details: ip; cited from earlier work

With `CC(C)(O/N=C(\C(=O)N[C@@H]1C(=O)N2C(C(=O)[O-])=C(C[n+]3ccccc3)CS[C@H]12)c1csc(N)n1)C(=O)O` [ceftazidime] the “B. pseudomallei present in lungs of surviving mice” value ([1]; mouse, in vivo) was “two of three”, the “bacteria in spleen of surviving mice” value ([1]; mouse, in vivo) was > 1 × 10^7 CFU and the “survival at 30 days post-infection” value [1] was 60%.
For `CO[C@@H]1[C@@H](OC(=O)c2ccc(C)[nH]2)[C@@H](O)[C@H](Oc2ccc3c(O)c(NC(=O)c4ccc(O)c(CC=C(C)C)c4)c(=O)oc3c2Cl)OC1(C)C` [clorobiocin], the “membrane permeability compared with novobiocin” value [2] is given as “improved membrane permeability”, the “potency as inhibitor of gyrase and topoisomerase IV relative to novobiocin” value [3] is given as “more potent inhibitor” and the “bacterial load in haemolymph (killing activity in vivo)” value (shortened to “bacterial load in haemolymph”) [4] is given as “significantly reduced the bacterial load”. The “larvae whose haemolymph was sterile of any bacteria” value [4] was 100% and the “survival of Galleria larvae” value [4] was “all Galleria larvae survived”.
In the case of `CO[C@@H]1[C@@H](OC(N)=O)[C@@H](O)[C@H](Oc2ccc3c(O)c(NC(=O)c4ccc(O)c(CC=C(C)C)c4)c(=O)oc3c2C)OC1(C)C` [novobiocin], the AUC [5] was 33.2 µM·h, the AUC(0-inf) [5] was 33.2 µM·h and the AUC(0-t) [5] was 33.2 µM·h. For the same molecule, the Cmax [5] was 10.7 µM, the Tmax [5] was 1 h and the half-life ([5]; t1/2) was 2.8 h. For the same molecule, the MIC [6] was < 10 µg/mL, the “effect of DL-tryptophan on drug accumulation in tissue” value [7] was “No significant effect on drug accumulation in adipose or haemolymphatic tissue” and the “bacterial load in haemolymph” value [4] was “no significant killing activity”. The “survival of Galleria larvae” value [4] was “no larvae treated with novobiocin survived longer than 24 h post-infection”.
In the case of coumermycin, the “activity against multiple strains of B. pseudomallei in vivo” value [8] is given as “significant activity”, the “units with complete organ sterility” value ([1]; mouse, in vivo) is given as 40% and the “survival at 30 days post-infection” value [1] is given as 40%. The “bacterial load in haemolymph” value [4] was “significantly reduced the bacterial load”, the “larvae whose haemolymph was sterile of any bacteria” value [4] was 60% and the “survival of Galleria larvae” value [4] was “all Galleria larvae survived”.
